The nature of one series: thermodynamic solubility. The class given is physicochemical. Conditions: in PBS, pH 7.4, for 14 days at 37 °C. From the text: Pharmacophore Model Building
The pharmacophore predictive
Broad- Panel Kinase Profiling
according to in-house protocols therein.
Pharmacokinetic Anal yses
In vitro pharmacok inetic assays were […]

The test system of series [1] is mouse lymph node (LN) cells. The series is described as follows: cells. Conditions: read-out: IC50 (normal; lymph node cells); at 48 hr. An excerpt:
(§1) Additional details are provided in Supplemental Experimental Procedures.
(§2) automated system (Becton Dick inson) and analyzed with FlowJo.

In another series the test system is human PBMCs. The series is described as follows: cells. The following applies: read-out: IC50 (normal; PBMCs); at 48 hr.
Text: as §1, §2

In series [2] the test system is CD138+ cells from WM patients. Briefly: cells. The following applies: read-out: IC50 (WM; PCs (n= 2)); at 48 hr; mean ± SEM.
Text: as §1, §2

Another series has as its system human BMSCs. The series is described as follows: cells. The following applies: read-out: IC50 (normal; BMSCs); at 48 hr.
Text: as §1, §2

The subject of series [3] is human mesenchymal stem cells (MSCs). The series is described as follows: cells. The following applies: read-out: IC50 (normal; MCSs); at 48 hr.
Text: as §1, §2

The subject of another series is mouse splenocytes. Briefly: cells. The following applies: read-out: IC50 (normal; splenocytes); at 48 hr.
Text: as §1, §2

In series [4] the test system is CD138+ cells from MM patients. Briefly: cells. Conditions: read-out: IC50 (MM; PCs (n = 8)); at 48 hr; mean ± SEM.
Text: as §1, §2

A further series is described as follows: tolerability in mice. An excerpt:
Table S6, related to Figure 7. Summary of the pharmacokinetic profiles of DTP3 and z-DTP2
PK Param enters Values Drug
Values denote means ± SD (n=3) or SEM (n=5), as indicated. MW , molecular

For the next series, the target named is T1, GST-hMKK7 (Homo sapiens, UniProt O14733).
T1 construct: Full-length human (h)MKK7 was expressed as a protein fused to an N-terminal GST tag (GST-MKK7); made in house
T1 sequence (O14733 1-419): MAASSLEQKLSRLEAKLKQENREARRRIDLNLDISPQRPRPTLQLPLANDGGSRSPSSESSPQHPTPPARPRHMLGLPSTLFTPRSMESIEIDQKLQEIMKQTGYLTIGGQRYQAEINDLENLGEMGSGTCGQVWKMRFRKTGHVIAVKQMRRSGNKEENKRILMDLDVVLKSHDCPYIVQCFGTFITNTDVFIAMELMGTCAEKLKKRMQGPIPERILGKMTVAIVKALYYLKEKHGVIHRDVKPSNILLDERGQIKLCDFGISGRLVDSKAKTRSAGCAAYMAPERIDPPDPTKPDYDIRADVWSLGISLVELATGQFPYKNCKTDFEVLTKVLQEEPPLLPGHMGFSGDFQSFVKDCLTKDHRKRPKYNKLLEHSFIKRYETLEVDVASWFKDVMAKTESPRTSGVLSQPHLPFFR
Briefly: tryptophan fluorescence quenching analysis. Format: binding. The following applies: DTP3/MKK7 interaction. As for the experimental part: The stoichiometry and KD value of the DTP3/MKK7 interaction were determined by tryptophan fluorescence quenching analysis, after fitting the fluorescence data with a nonlinear regression algorithm, as described by [Williamson (2013)]. Additional details are provided in Supplemental Experimental Procedures, along with a description of the methods used for CD and MALDI-TOF mass spectrometry analyses and the pull-down of MKK7 from cells with DTP3.
Spectrofluorimetric Analyses
The stoichiometry of the interaction of DTP3 with MKK7 was determined by using tryptophan f luorescence quenching analysis. Spectra were acquired with a Cary Eclipse Spectrof luorimeter analyzer (Varian Inc.), equipped with Peltier thermostating system, and a 1- cm quartz cuvette. The analyses were carried out using 1. 25 μM of GST -hMKK7 or GST dissolved in 10 mM of phosphate buff er, pH 7.5, and increasing concentrations of DTP3 or control SCRB D-peptide dissolved in the same buffer. […] The fluorescence values recorded at 333 nm were extracted, transformed to -ΔFluorescence and, then, plotted against the peptide concentration.
Fluorescence data were f itted using a single- site binding model (equation 1): […]
binding, was a highly appropriate model to account for the measured f lorescence trends, resulting in a R square (R2) of 0.985 and a chi square (X2) of 1.436. […]

From paper PMC4197335, “Cancer-Selective Targeting of the NF-κB Survival Pathway with GADD45β/MKK7 Inhibitors” (Cancer Cell, 2014) come the findings set out here.

≈ marks a conversion by molar mass, not a printed value. Bounds are passed on as bounds.

By solubility (thermodynamic) is commonly meant solubility found after equilibrating the solid with the medium. The IC50 is the concentration at which inhibition is half-maximal. What is called Kd is the equilibrium constant for the complex coming apart. As for `CC(=O)N[C@H](Cc1ccc(O)cc1)C(=O)N[C@H](CCCNC(=N)N)C(=O)N[C@H](Cc1ccccc1)C(N)=O` [DTP3, Ac-YRF-NH2], the solubility (thermodynamic) in “thermodynamic solubility” is 169 ± 7.53 mg/mL (≈ 322 mM). Further, the concentration for half-maximal inhibition (IC50) was > 100 µM in series [1]; > 100 µM in the series on human PBMCs; > 10 µM in [2]; > 100 µM in the series on human BMSCs; > 100 µM in series [3]; > 100 µM in the series with mouse splenocytes. In series [4], the IC50 came to 28.2 ± 0.1 nM. The “Toxicity - continual s.c. dosing (14.5 mg/kg/day for 28 days)” value in the series “tolerability in mice” (mice, osmotic pumps) is “no apparent toxicity”. The “Toxicity - single i.v. (10 mg/kg)” value in “tolerability in mice” (mouse, in vivo, iv, 10 mg/kg) is given as “no apparent toxicity”. For the same molecule, the “Toxicity - oral (100 mg/kg)” value in the series “tolerability in mice” (mouse, in vivo, po, 100 mg/kg) was “no apparent toxicity”. The “Toxicity - single s.c. (10 mg/kg)” value in the series “tolerability in mice” (mouse, in vivo, sc, 10 mg/kg) was “no apparent toxicity”. At GST-hMKK7, the Kd stood at 64.8 ± 6.22 nM.
